Laboratory results taken from publication PMC5398486, “Cheminformatics-aided discovery of small-molecule Protein-Protein Interaction (PPI) dual inhibitors of Tumor Necrosis Factor (TNF) and Receptor Activator of NF-κB Ligand (RANKL)” (PLoS Computational Biology, 2017).
Values after ≈ are worked out from the molar mass of the structure shown. Where two headings read alike, the source gives them in different places. Marks after values point to notes of the source that are not given here.

Experiments:
[1] = molecular target: T1, RANKL (Homo sapiens, UniProt O14788); assay: Fluorescence-based binding affinity assay, RANKL
T1 sequence (O14788 143-317): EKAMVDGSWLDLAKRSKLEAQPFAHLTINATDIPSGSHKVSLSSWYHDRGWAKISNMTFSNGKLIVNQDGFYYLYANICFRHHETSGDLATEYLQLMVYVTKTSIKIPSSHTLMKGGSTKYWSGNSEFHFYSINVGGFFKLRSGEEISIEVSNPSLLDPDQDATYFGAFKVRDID
Procedure: For use in the binding assays, recombinant TNF and RANKL were expressed and purified as previously described.[84–86] Fluorescence intensity was measure with a Synergy H1 Multi-Mode Reader (BioTek) in 96-well microplates (black) at 25°C. […] During preparation of the solutions the buffer was firstly added to all wells followed by the ligand solution and finally the protein was added. All solutions were mixed by pipetting and equilibrated for 1h at 25°C before measurement. […] Experiments were performed for TNF in 10 mM citrate-phosphate (pH 6.5) and for RANKL in 25 mM Tris–HCl buffer, 100 mM NaCl (pH 7.5); both buffers were supplemented with PEG3350 at the concentrations indicated in the respective figures. Kd values were calculated as mean ± SEM from three independent experiments.
Differences in fluorescence intensity between the protein/ligand complex and free protein (or free ligand) were analysed as previously described in [Papaneophytou et al. (2013) ACS Med Chem Lett. 4: 137-141] (Eq. S6) in order to determine the dissociation constant (Kd) of the various protein-ligand systems.
In Eq. (S6) Fobs is the observed fluorescence intensity; FBG is the fluorescence background signal; MFLF [picture] and PF are the molar fluorescence and concentration of free protein, respectively; FR is the fluorescence ratio of bound protein (or bound ligand in the case of a fluorescence ligand); LT and PT are the total concentrations of ligand and protein, respectively. A detailed analysis of the development of the fluorescence ligand-binding assay is given in [Papaneophytou et al. (2013) ACS Med Chem Lett. 4: 137-141].

[2] = Solubility with PEG3350 as co-solvent; type: physicochemical; conditions: PEG3350 2.5% v/v
Text: PEG3350 was used as co-solvent in order to enhance inhibitors solubility and thus eliminate the possibility of aggregates formation. | column: Solubility (μM)

[3] = system: L929 cells; parameters: method as in PMID 25160057; conditions: compound alone, read-out: L929 LC50; cited from earlier work
[4] = PEG3350 0% v/v; cited from earlier work
[5] = molecular target: the molecule itself; assay: cross-linking; 100 ng recombinant human TNF or RANKL, with or without inhibitors (30 min, room temperature), cross-linked with 4.8 mM BS3 for 30 min at room temperature; SDS-PAGE and western blot

Question: For `Cc1cc2occ(CN(C)CCN(C)Cc3cn(-c4cccc(C(F)(F)F)c4)c4ccccc34)c(=O)c2cc1C` [SPD304, InChI = 1S/C32H32F3N3O2/c1-21-14-28-30(15-22(21)2)40-20-24(31(28)39)18-37(4)13-12-36(3)17-23-19-38(29-11-6-5-10-27(23)29)26-9-7-8-25(16–26)32(33,34)35/h5-11,14–16,19-20H,12–13,17-18H2,1-4H3, reference compound], which Kd ([1]; RANKL 0.5 μM, PEG3350 2.5%, 25 mM Tri-HCl, 100 mM NaCl pH 7.5, read-out: Binding affinity (Kd), RANKL) is on record?
Answer: 14.2 ± 0.68 µM

Question: And the Kd ([1]; RANKL 0.5 μM, PEG3350 5%, 25 mM Tri-HCl, 100 mM NaCl pH 7.5, read-out: Binding affinity (Kd), RANKL)?
Answer: 13.8 ± 0.73 µM

Question: What about the Kd ([1]; fluorescence assay, 25°C, 25 mM Tris-HCl, 100 mM NaCl, pH 7.5, 5% PEG3350, read-out: Kd (RANKL complexes)) of the same molecule?
Answer: 13.8 ± 0.7 µM

Question: What about the solubility [2] of the same molecule?
Answer: 71 µM (≈ 38.9 µg/mL)

Question: And the CC50 [3]?
Answer: 7.5 ± 0.2 µM

Question: And the solubility [4]?
Answer: 10^b μM

B1: recombinant human RANKL (Receptor activator of nuclear factor kappa-B ligand) (ligand, UniProt O14788 140-317, looked up)
chain: IRAEKAMVDGSWLDLAKRSKLEAQPFAHLTINATDIPSGSHKVSLSSWYHDRGWAKISNMTFSNGKLIVNQDGFYYLYANICFRHHETSGDLATEYLQLMVYVTKTSIKIPSSHTLMKGGSTKYWSGNSEFHFYSINVGGFFKLRSGEEISIEVSNPSLLDPDQDATYFGAFKVRDID
notes: source: bought: Peprotech
Question: Which “stoichiometry N” value [5] does the source give for B1 here?
Answer: 3
